Assays:
RAD52-dsDNA interaction = target: T1, RAD52-dsDNA interaction (Homo sapiens, UniProt P43351); experiment: FRET-based RAD52-dsDNA binding assay; details: 1 nM dsDNA, 10 nM RAD52
T1 construct: made in house
T1 sequence (P43351 1-418): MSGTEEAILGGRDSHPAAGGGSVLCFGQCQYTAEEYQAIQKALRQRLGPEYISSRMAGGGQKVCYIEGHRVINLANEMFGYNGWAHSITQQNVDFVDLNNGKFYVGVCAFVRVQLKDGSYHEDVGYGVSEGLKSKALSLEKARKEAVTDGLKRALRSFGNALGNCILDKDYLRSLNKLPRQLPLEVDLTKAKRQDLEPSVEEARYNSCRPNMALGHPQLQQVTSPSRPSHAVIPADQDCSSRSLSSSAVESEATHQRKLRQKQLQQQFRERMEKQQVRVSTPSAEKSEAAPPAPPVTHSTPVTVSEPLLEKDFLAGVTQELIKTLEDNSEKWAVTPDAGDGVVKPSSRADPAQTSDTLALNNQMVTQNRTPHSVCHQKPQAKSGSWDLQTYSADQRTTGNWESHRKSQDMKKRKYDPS
From the text: These assays utilize two complementary single stranded 28-nucleotide-long substrates, which contain either Cy3 (T-28) or Cy5 (P-28) incorporated into the middle of the respective DNA strand. When the substrates are annealed by RAD52, the Cy3 and Cy5 dyes are separated by 3 base pairs and yield a high FRET signal (FIG. 2 Supplement 2). […] The annealing reactions were initiated by mixing two half reactions and observing the change in FRET over time in the presence of varying concentrations of small molecules. An increasing FRET value over time indicates formation of the dsDNA duplex which brings the two dyes in close proximity (FIG. 2 Supplement 2). Fitting the annealing data to a double exponential allowed us to calculate and compare the final extent of annealing at varying concentrations of each compound compared to RAD52 alone. We plotted the final extent of annealing vs the concentration of the compound and calculated an IC50 of annealing inhibition.
where FRET0 is the initial FRET value of RAD52-ssDNA complex in the absence of the compound and FRETmin is the FRET value at complete inhibition. FRET values were calculated as an average of three or more independent annealing reactions plotted against the concentration of the compound. […]

RAD52-ssDNA interaction = target: T2, RAD52-ssDNA interaction (Homo sapiens, UniProt P43351); experiment: FRET-based ssDNA binding and wrapping assay (RAD52-Cy3-dT30-Cy5 complex); details: FRET-based competition assay; read-out: IC50, RAD52-ssDNA interaction
T2 construct: made in house
T2 sequence (P43351 1-418): T1 sequence (P43351 1-418)
Protocol: We titrated increasing amounts of each compound into a cuvette containing preformed stoichiometric RAD52-Cy3-dT30-Cy5 complexes (1 nM Cy3-dT30-Cy5 and 8 nM RAD52). […] At each concentration of the compound, the FRET signal was adjusted for the change in Cy3 and Cy5 fluorescence in the presence of the compound, but in the absence of protein.
FRET-based DNA binding and annealing assays: FRET-based ssDNA binding, dsDNA binding, and annealing assays were carried out as previously described (Grimme et al., 2010, Grimme and Spies, 2011) using Cary Eclipse spectrofluorimeter (Varian) at 25° C. in buffer containing 30 mM Tris-Acetate pH7.5, 1 mM DTT, and 0.1 mg/mL BSA. Cy3 dye was excited at 530 nm and its emission was monitored at 565 nm. Emission of Cy5 acceptor fluorophore excited through the energy transfer from Cy3 donor is monitored at 660 nm simultaneously with emission of Cy3 dye. Both the excitation and the emission slit widths were set to 10 nm.
All experiments were performed in triplicates, and the data are shown as averages and standard deviations for three independent measurements. To remove possible experimental artifacts associated with chromogenic or fluorogenic compounds, as well as with the compounds that may quench or enhance Cy3 or Cy5 fluorescence, we also performed control titrations whereby we titrated each compound into 1 nM Cy3-dT30-Cy5 in the absence of RAD52. For each compound concentration we subtracted the difference in the FRET signal in the presence and absence of the compound from the respective FRET signal in the presence of RAD52. The FRET signal corrected for the compound fluorescence was calculated using the equation: […]
as previously described (Grimme et al., 2010, Grimme and Spies, 2011) and plotted as a function of compound concentration and fitted to the following inhibition model”
(§1) where FRET0 is the initial FRET value of RAD52-ssDNA complex in the absence of the compound and FRETmin is the FRET value at complete inhibition. FRET values were calculated as an average of three or more independent annealing reactions plotted against the concentration of the compound. Inhibition of the RAD52-dsDNA interaction was assayed in a similar experiment, except the stoichiometric complexes containing 1 nM molecules of Cy3-Oligo28-Cy5 duplex DNA and 10 nM RAD52. […] In all experiments, the FRET values for each data point were corrected for the effects of the compounds on the respective substrate in the absence of RAD52.

RPA-ssDNA interaction = target: T3, RPA-ssDNA interaction (Homo sapiens, UniProt P15927+P27694+P35244); experiment: FRET titration of the RPA-Cy3-dT30-Cy5 complex; assay type: binding
T3 construct: made in house
From the text: Compounds ‘1’ and ‘6’ inhibit RAD52 binding to and annealing of the RPA-coated ssDNA: In the cell, ssDNA is typically found in complex with Replication protein A (RPA), which is the major eukaryotic ssDNA-binding protein essential for DNA replication, repair and recombination (Wold, 1997, Oakley and Patrick, 2010, Chen and Wold, 2014). The RPA-ssDNA complex is a natural substrate for the RDA52-mediated strand annealing. To confirm that compounds ‘1’ and ‘6’ can inhibit the RAD52 binding to and annealing of the RPA-coated ssDNA we added stoichiometric amounts of RPA (1 RPA per 30 nucleotides of ssDNA) to the FRET-based ssDNA binding/wrapping and ssDNA annealing experiments described above. RPA binds ssDNA with high affinity and extends the ssDNA to its contour length. In our assays such an extension manifests as a distinct FRET state of ˜0.3, which is readily distinguished from a FRET state of ˜0.48 of free Cy3-dT30-Cy5 ssDNA, as well as ˜0.63 FRET of the stoichiometric ssDNA-RPA-RAD52 complex (see FIG. 2 Supplement 1 and (Grimme and Spies, 2011) for details). […] Both, however, inhibited the RAD52 binding to and wrapping of RPA-coated ssDNA with IC50 values identical to those determined without RPA (FIG. 2e and FIG. 3e).
as §1

RPA = target: T4, RPA (Homo sapiens, UniProt P15927+P27694+P35244); experiment: WaterLOGSY NMR analysis of compound binding to RPA; details: 20 or 40 μM compound, 3.3 μM RPA
T4 construct: made in house
From the text: Compounds ‘1’ and ‘6’ physically interact with RAD52: To confirm that the selected compounds bind RAD52, we employed water-ligand observation with gradient spectroscopy (WaterLOGSY), an NMR technique, which is based on transfer of magnetization from bulk water to the protein-bound compound of interest (Dalvit et al., 2001, Dalvit et al., 2000). In WaterLOGSY spectrum, if a compound binds to a protein, the compound will receive negative nuclear Overhauser effects (NOEs) due to the slow tumbling of the protein-compound complex, leading to a positive WaterLOGSY peak.
(§2) WaterLOGSY NMR analysis of the compound binding to RAD52 and RPA proteins: Compound binding to RAD52 and RPA proteins was analyzed using water-ligand observation with gradient spectroscopy (WaterLOGSY) NMR experiments (Dalvit et al., 2001, Dalvit et al., 2000). The WaterLOGSY spectra of compounds in the presence of RAD52 or RPA were acquired using a water NOE mixing time of 1 s and a T2 relaxation filter of 50 ms just before data acquisition to suppress the broad signals derived from protein. The protein buffer used in the experiments contains 10 mM Tris-d11, 75 mM KCl, 0.25 mM EDTA, pH 7.5, and 10% D20. All NMR data were acquired on a Bruker Avance II 800 MHz NMR spectrometer equipped with a sensitive cryoprobe and recorded at 25° C. The ^1H chemical shifts were referenced to 2,2-dimethyl-2-silapentane-5-sulfonate (DSS). NMR spectra were processed using NMR Pipe (Delaglio et al., 1995) and analysed using NMR View (Johnson and Blevins, 1994).

RAD52 = target: T5, RAD52 (Homo sapiens, UniProt P43351); experiment: WaterLOGSY NMR analysis of compound binding to RAD52; set-up: made in house; details: 20 or 40 μM compound, 3.3 μM RAD52
T5 sequence (P43351 1-418): T1 sequence (P43351 1-418)
Protocol: In WaterLOGSY spectrum, if a compound binds to a protein, the compound will receive negative nuclear Overhauser effects (NOEs) due to the slow tumbling of the protein-compound complex, leading to a positive WaterLOGSY peak.
as §2

[1] = target: T6, RAD52-RPA-Cy3-dT30-Cy5 complex (Homo sapiens, UniProt P43351); experiment: FRET-based RAD52 binding/wrapping of RPA-coated ssDNA
T6 construct: made in house
Protocol: RPA binds ssDNA with high affinity and extends the ssDNA to its contour length.
as §1

T4 sequence (P27694 whole entry): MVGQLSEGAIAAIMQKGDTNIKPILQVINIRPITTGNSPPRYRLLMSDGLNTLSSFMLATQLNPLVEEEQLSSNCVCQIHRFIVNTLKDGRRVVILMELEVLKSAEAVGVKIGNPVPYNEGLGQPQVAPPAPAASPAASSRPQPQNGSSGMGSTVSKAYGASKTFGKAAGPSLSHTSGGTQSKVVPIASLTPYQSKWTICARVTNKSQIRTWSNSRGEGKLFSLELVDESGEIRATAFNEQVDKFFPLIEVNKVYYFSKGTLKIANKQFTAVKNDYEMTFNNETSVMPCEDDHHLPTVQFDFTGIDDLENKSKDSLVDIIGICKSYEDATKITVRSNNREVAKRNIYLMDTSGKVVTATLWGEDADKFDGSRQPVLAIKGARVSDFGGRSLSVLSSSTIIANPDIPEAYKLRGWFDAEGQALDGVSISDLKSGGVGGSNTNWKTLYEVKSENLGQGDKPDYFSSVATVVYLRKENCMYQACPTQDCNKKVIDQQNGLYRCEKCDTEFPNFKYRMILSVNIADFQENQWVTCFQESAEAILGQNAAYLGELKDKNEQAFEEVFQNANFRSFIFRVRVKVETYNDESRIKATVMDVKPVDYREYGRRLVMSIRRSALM
T4 sequence (P15927 whole entry): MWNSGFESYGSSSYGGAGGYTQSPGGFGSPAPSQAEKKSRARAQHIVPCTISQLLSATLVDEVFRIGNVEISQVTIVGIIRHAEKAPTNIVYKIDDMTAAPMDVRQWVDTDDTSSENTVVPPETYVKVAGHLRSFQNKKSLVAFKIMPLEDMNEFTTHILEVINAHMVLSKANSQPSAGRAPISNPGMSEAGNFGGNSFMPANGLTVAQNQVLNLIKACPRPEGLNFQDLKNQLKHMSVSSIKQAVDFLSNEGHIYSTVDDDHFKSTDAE
T4 sequence (P35244 whole entry): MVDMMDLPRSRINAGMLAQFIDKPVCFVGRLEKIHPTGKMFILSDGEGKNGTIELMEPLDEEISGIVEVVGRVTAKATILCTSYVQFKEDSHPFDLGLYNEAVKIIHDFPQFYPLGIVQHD
T3 sequence (P27694 whole entry): as the sequence (P27694 whole entry) above
T3 sequence (P15927 whole entry): as the sequence (P15927 whole entry) above
T3 sequence (P35244 whole entry): as the sequence (P35244 whole entry) above
T6 sequence (P27694 whole entry partner, one chain of several): as the sequence (P27694 whole entry) above
T6 sequence (P15927 whole entry partner, one chain of several): as the sequence (P15927 whole entry) above
T6 sequence (P35244 whole entry partner, one chain of several): as the sequence (P35244 whole entry) above

O=C(O[C@@H]1O[C@@H]2COC(=O)c3cc(O)c(O)c(O)c3-c3c(cc(O)c(O)c3O)C(=O)O[C@H]([C@H]1O)[C@@H]2O)c1cc(O)c(O)c(O)c1 [NP-004255, corilagin]
Effect on the RAD52-dsDNA interaction (RAD52-dsDNA interaction): no effect | IC50 (RAD52-ssDNA interaction): 1500 ± 200 nM | Effect on the RPA-ssDNA interaction (RPA-ssDNA interaction): did not affect the RPA-ssDNA complex | Binding to RPA by WaterLOGSY (RPA): bound RPA | Binding to RAD52 by WaterLOGSY (RAD52): physically interacts with RAD52 protein | IC50 [1]: 500 ± 100 nM
